Molecular target: USP7 (Homo sapiens, UniProt Q93009)
Test: USP7 inhibitory potency (Table 1)
Format: biochemical

USP7, sequence (Q93009 whole entry): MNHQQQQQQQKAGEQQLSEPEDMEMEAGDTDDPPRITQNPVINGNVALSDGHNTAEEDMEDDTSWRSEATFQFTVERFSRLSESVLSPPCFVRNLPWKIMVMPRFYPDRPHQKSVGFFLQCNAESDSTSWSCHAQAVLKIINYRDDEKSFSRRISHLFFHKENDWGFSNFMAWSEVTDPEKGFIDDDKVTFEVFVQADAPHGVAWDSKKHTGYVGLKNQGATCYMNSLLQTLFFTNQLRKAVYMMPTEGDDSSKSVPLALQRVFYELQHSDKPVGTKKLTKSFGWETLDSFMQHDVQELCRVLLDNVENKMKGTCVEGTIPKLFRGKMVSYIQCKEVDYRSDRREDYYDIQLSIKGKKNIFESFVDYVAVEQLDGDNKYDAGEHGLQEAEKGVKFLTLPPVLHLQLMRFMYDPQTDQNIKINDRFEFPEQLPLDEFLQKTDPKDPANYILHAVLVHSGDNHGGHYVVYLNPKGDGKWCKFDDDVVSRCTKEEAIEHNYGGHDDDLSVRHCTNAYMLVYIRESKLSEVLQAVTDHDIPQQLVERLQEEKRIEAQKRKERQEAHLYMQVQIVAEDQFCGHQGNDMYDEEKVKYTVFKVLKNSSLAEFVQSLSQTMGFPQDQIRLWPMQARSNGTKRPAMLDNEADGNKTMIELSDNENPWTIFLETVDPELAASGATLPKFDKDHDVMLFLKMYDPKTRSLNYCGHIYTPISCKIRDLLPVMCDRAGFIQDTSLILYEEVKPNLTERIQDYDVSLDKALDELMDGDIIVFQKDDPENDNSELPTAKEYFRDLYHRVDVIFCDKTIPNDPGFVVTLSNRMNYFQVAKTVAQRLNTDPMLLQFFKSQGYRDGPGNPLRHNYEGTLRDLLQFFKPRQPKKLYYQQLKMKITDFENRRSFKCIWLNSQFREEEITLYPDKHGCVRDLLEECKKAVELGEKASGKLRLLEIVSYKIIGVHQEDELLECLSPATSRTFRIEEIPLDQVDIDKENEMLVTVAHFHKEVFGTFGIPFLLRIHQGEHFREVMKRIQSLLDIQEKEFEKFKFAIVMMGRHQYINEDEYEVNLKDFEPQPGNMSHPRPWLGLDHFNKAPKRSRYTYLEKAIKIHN

| Structure (SMILES) | IC50 [nM] |
| --- | --- |
| Cc1ccc(S(=O)(=O)N2Cc3nccc(-c4cc(Cl)cc5c4O[C@@H](c4onc6c4CNCC6)C5)c3C2)cc1 [(R)-3-(5-chloro-7-(6-tosyl-6,7-dihydro-5H-pyrrolo[3,4-b]pyridin-4-yl)-2,3-dihydrobenzofuran-2-yl)-4,5,6,7-tetrahydroisoxazolo[4,3-c]pyridine] | 10000 to 30000 |
| CS(=O)(=O)N1CCc2noc([C@H]3Cc4cc(Cl)cc(-c5ncnc6ccoc56)c4O3)c2C1 [(R)-3-(5-chloro-7-(furo[3,2-d]pyrimidin-4-yl)-2,3-dihydrobenzofuran-2-yl)-5-(methylsulfonyl)-4,5,6,7-tetrahydroisoxazolo[4,3-c]pyridine] | 1000 to 10000 |
| CCN1CCc2noc([C@H]3Cc4cc(Cl)cc(-c5ncnc6ccoc56)c4O3)c2C1 [(R)-3-(5-chloro-7-(furo[3,2-d]pyrimidin-4-yl)-2,3-dihydrobenzofuran-2-yl)-5-ethyl-4,5,6,7-tetrahydroisoxazolo[4,3-c]pyridine] | 1000 to 10000 |
| FC(F)(F)CN1CCc2noc([C@H]3Cc4cc(Cl)cc(-c5ccnc6ccsc56)c4O3)c2C1 [(R)-3-(5-chloro-7-(thieno[3,2-b]pyridin-7-yl)-2,3-dihydrobenzofuran-2-yl)-5-(2,2,2-trifluoroethyl)-4,5,6,7-tetrahydroisoxazolo[4,3-c]pyridine] | < 1000 |
| CCN1CCc2noc([C@H]3Cc4cc(Cl)cc(-c5ccnc6ccsc56)c4O3)c2C1 [(R)-3-(5-chloro-7-(thieno[3,2-b]pyridin-7-yl)-2,3-dihydrobenzofuran-2-yl)-5-ethyl-4,5,6,7-tetrahydroisoxazolo[4,3-c]pyridine] | < 1000 |
| CC(C)N1CCc2noc([C@H]3Cc4cc(Cl)cc(-c5ccnc6ccsc56)c4O3)c2C1 [(R)-3-(5-chloro-7-(thieno[3,2-b]pyridin-7-yl)-2,3-dihydrobenzofuran-2-yl)-5-isopropyl-4,5,6,7-tetrahydroisoxazolo[4,3-c]pyridine] | < 1000 |
| CN1CCc2noc([C@H]3Cc4cc(Cl)cc(-c5ccnc6ccsc56)c4O3)c2C1 [(R)-3-(5-chloro-7-(thieno[3,2-b]pyridin-7-yl)-2,3-dihydrobenzofuran-2-yl)-5-methyl-4,5,6,7-tetrahydroisoxazolo[4,3-c]pyridine] | < 1000 |
| CN(C)C(=O)CCc1cc2nccc(-c3cc(Cl)cc4c3O[C@@H](C(=O)N3CCNCC3)C4)c2s1 [(R)-3-(7-(5-chloro-2-(piperazine-1-carbonyl)-2,3-dihydrobenzofuran-7-yl)thieno[3,2-b]pyridin-2-yl)-N,N-dimethylpropanamide] | 1000 to 10000 |
| CNC(=O)CCc1cc2nccc(-c3cc(Cl)cc4c3O[C@@H](C(=O)N3CCNCC3)C4)c2s1 [(R)-3-(7-(5-chloro-2-(piperazine-1-carbonyl)-2,3-dihydrobenzofuran-7-yl)thieno[3,2-b]pyridin-2-yl)-N-methylpropanamide] | < 1000 |
| O[C@]1(c2cc3nccc(-c4cc(Cl)cc5c4O[C@@H](c4onc6c4CNCC6)C5)c3s2)CCOC1 [(R)-3-(7-((R)-5-chloro-2-(4,5,6,7-tetrahydroisoxazolo[4,3-c]pyridin-3-yl)-2,3-dihydrobenzofuran-7-yl)thieno[3,2-b]pyridin-2-yl)tetrahydrofuran-3-ol] | < 1000 |
| CN1CCC(=O)N(Cc2cc3nccc(-c4cc(Cl)cc5c4O[C@@H](C(=O)N4CCNCC4)C5)c3s2)C1=O [(R)-3-((7-(5-chloro-2-(piperazine-1-carbonyl)-2,3-dihydrobenzofuran-7-yl)thieno[3,2-b]pyridin-2-yl)methyl)-1-methyldihydropyrimidine-2,4(1H,3H)-dione] | < 1000 |
| CN1CC(=O)N(Cc2cc3nccc(-c4cc(Cl)cc5c4O[C@@H](C(=O)N4CCNCC4)C5)c3s2)C1=O [(R)-3-((7-(5-chloro-2-(piperazine-1-carbonyl)-2,3-dihydrobenzofuran-7-yl)thieno[3,2-b]pyridin-2-yl)methyl)-1-methylimidazolidine-2,4-dione] | < 1000 |
| Cn1ccc(=O)n(Cc2cc3nccc(-c4cc(Cl)cc5c4O[C@@H](C(=O)N4CCNCC4)C5)c3s2)c1=O [(R)-3-((7-(5-chloro-2-(piperazine-1-carbonyl)-2,3-dihydrobenzofuran-7-yl)thieno[3,2-b]pyridin-2-yl)methyl)-1-methylpyrimidine-2,4(1H,3H)-dione] | < 1000 |
| O=C([C@H]1Cc2cc(Cl)cc(-c3ccnc4cc(CN5C(=O)CCNC5=O)sc34)c2O1)N1CCNCC1 [(R)-3-((7-(5-chloro-2-(piperazine-1-carbonyl)-2,3-dihydrobenzofuran-7-yl)thieno[3,2-b]pyridin-2-yl)methyl)dihydropyrimidine-2,4(1H,3H)-dione] | < 1000 |
| O=C([C@H]1Cc2cc(Cl)cc(-c3ccnc4cc(CN5C(=O)CNC5=O)sc34)c2O1)N1CCNCC1 [(R)-3-((7-(5-chloro-2-(piperazine-1-carbonyl)-2,3-dihydrobenzofuran-7-yl)thieno[3,2-b]pyridin-2-yl)methyl)imidazolidine-2,4-dione] | < 1000 |
| O=C1OCCN1Cc1cc2nccc(-c3cc(Cl)cc4c3O[C@@H](C(=O)N3CCNCC3)C4)c2s1 [(R)-3-((7-(5-chloro-2-(piperazine-1-carbonyl)-2,3-dihydrobenzofuran-7-yl)thieno[3,2-b]pyridin-2-yl)methyl)oxazolidin-2-one] | < 1000 |
| O=C([C@H]1Cc2cc(Cl)cc(-c3ccnc4cc(CN5C(=O)COC5=O)sc34)c2O1)N1CCNCC1 [(R)-3-((7-(5-chloro-2-(piperazine-1-carbonyl)-2,3-dihydrobenzofuran-7-yl)thieno[3,2-b]pyridin-2-yl)methyl)oxazolidine-2,4-dione] | < 1000 |
| O=C([C@H]1Cc2cc(Cl)cc(-c3ccnc4cc(Cn5cnccc5=O)sc34)c2O1)N1CCNCC1 [(R)-3-((7-(5-chloro-2-(piperazine-1-carbonyl)-2,3-dihydrobenzofuran-7-yl)thieno[3,2-b]pyridin-2-yl)methyl)pyrimidin-4(3H)-one] | < 1000 |

Next, values leading:

| IC50 [nM] | Structure (SMILES) |
| --- | --- |
| 1000 to 10000 | CS(=O)(=O)c1ccc2c(-c3cc(Cl)cc4c3O[C@@H](c3onc5c3CNCC5)C4)ccnc2c1 [(R)-3-(5-chloro-7-(7-(methylsulfonyl)quinolin-4-yl)-2,3-dihydrobenzofuran-2-yl)-4,5,6,7-tetrahydroisoxazolo[4,3-c]pyridine] |
| 1000 to 10000 | FC(F)(F)c1ccc2c(-c3cc(Cl)cc4c3O[C@@H](c3onc5c3CNCC5)C4)ccnc2c1 [(R)-3-(5-chloro-7-(7-(trifluoromethyl)quinolin-4-yl)-2,3-dihydrobenzofuran-2-yl)-4,5,6,7-tetrahydroisoxazolo[4,3-c]pyridine] |
| 1000 to 10000 | Clc1cc2c(c(-c3ncnc4cc(Cl)ccc34)c1)O[C@@H](c1onc3c1CNCC3)C2 [(R)-3-(5-chloro-7-(7-chloroquinazolin-4-yl)-2,3-dihydrobenzofuran-2-yl)-4,5,6,7-tetrahydroisoxazolo[4,3-c]pyridine] |
| < 1000 | Clc1cc2c(c(-c3ccnc4cc(Cl)ccc34)c1)O[C@@H](c1onc3c1CNCC3)C2 [(R)-3-(5-chloro-7-(7-chloroquinolin-4-yl)-2,3-dihydrobenzofuran-2-yl)-4,5,6,7-tetrahydroisoxazolo[4,3-c]pyridine] |
| < 1000 | Fc1ccc2c(-c3cc(Cl)cc4c3O[C@@H](c3onc5c3CNCC5)C4)ccnc2c1 [(R)-3-(5-chloro-7-(7-fluoroquinolin-4-yl)-2,3-dihydrobenzofuran-2-yl)-4,5,6,7-tetrahydroisoxazolo[4,3-c]pyridine] |
| < 1000 | COc1ccc2c(-c3cc(Cl)cc4c3O[C@@H](c3onc5c3CNCC5)C4)ccnc2c1 [(R)-3-(5-chloro-7-(7-methoxyquinolin-4-yl)-2,3-dihydrobenzofuran-2-yl)-4,5,6,7-tetrahydroisoxazolo[4,3-c]pyridine] |
| 1000 to 10000 | Fc1cccc2c(-c3cc(Cl)cc4c3O[C@@H](c3onc5c3CNCC5)C4)ccnc12 [(R)-3-(5-chloro-7-(8-fluoroquinolin-4-yl)-2,3-dihydrobenzofuran-2-yl)-4,5,6,7-tetrahydroisoxazolo[4,3-c]pyridine] |
| < 1000 | Clc1cc2c(c(-c3ncnc4ccoc34)c1)O[C@@H](c1onc3c1CNCC3)C2 [(R)-3-(5-chloro-7-(furo[3,2-d]pyrimidin-4-yl)-2,3-dihydrobenzofuran-2-yl)-4,5,6,7-tetrahydroisoxazolo[4,3-c]pyridine] |
| < 1000 | Clc1cc2c(c(-c3ccnc4ccnn34)c1)O[C@@H](c1onc3c1CNCC3)C2 [(R)-3-(5-chloro-7-(pyrazolo[1,5-a]pyrimidin-7-yl)-2,3-dihydrobenzofuran-2-yl)-4,5,6,7-tetrahydroisoxazolo[4,3-c]pyridine] |
| < 1000 | Clc1cc2c(c(-c3ccnc4ccccc34)c1)O[C@@H](c1onc3c1CNCC3)C2 [(R)-3-(5-chloro-7-(quinolin-4-yl)-2,3-dihydrobenzofuran-2-yl)-4,5,6,7-tetrahydroisoxazolo[4,3-c]pyridine] |
| < 1000 | Clc1cc2c(c(-c3ccnc4ccsc34)c1)O[C@@H](c1onc3c1CNCC3)C2 [(R)-3-(5-chloro-7-(thieno[3,2-b]pyridin-7-yl)-2,3-dihydrobenzofuran-2-yl)-4,5,6,7-tetrahydroisoxazolo[4,3-c]pyridine] |
| < 1000 | Clc1cc2c(c(-c3ncnc4ccsc34)c1)O[C@@H](c1onc3c1CNCC3)C2 [(R)-3-(5-chloro-7-(thieno[3,2-d]pyrimidin-4-yl)-2,3-dihydrobenzofuran-2-yl)-4,5,6,7-tetrahydroisoxazolo[4,3-c]pyridine] |
| < 1000 | Clc1cc2c(c(-c3ccnc4cc(-c5cc[nH]n5)sc34)c1)O[C@@H](c1onc3c1CNCC3)C2 [(R)-3-(7-(2-(1H-pyrazol-3-yl)thieno[3,2-b]pyridin-7-yl)-5-chloro-2,3-dihydrobenzofuran-2-yl)-4,5,6,7-tetrahydroisoxazolo[4,3-c]pyridine] |
| 1000 to 10000 | OC1(c2cc3nccc(-c4cc(Cl)cc5c4O[C@@H](c4onc6c4CNCC6)C5)c3s2)CNC1 [(R)-3-(7-(5-chloro-2-(4,5,6,7-tetrahydroisoxazolo[4,3-c]pyridin-3-yl)-2,3-dihydrobenzofuran-7-yl)thieno[3,2-b]pyridin-2-yl)azetidin-3-ol] |
| < 1000 | OC1(c2cc3nccc(-c4cc(Cl)cc5c4O[C@@H](c4onc6c4CNCC6)C5)c3s2)COC1 [(R)-3-(7-(5-chloro-2-(4,5,6,7-tetrahydroisoxazolo[4,3-c]pyridin-3-yl)-2,3-dihydrobenzofuran-7-yl)thieno[3,2-b]pyridin-2-yl)oxetan-3-ol] |
